Measured values published in US20150336993A1, “MITOCHONDRIA-TARGETED THERANOSTIC AGENTS” (The Board of Trustees of the Leland Stanford Junior …, priority 2014, published 2015).
Like-named read-outs stand apart in the source and are kept apart here.

How the values were obtained:
U87MG cells [1] = assay: Cell proliferation assay in U87MG cells (direct cell counting); assay type: cell-based, human; settings: for IC50: 3000 cells/well, incubated 4 days, viable cells directly counted, read-out: IC50 (half inhibitory concentration) against U87MG
Protocol: Apart from the imaging studies, we then investigated anti-tumor activities of all F16 related compounds by studying their antiproliferative effects in U87MG and MDA-MB-231 cell lines. After exposure to 5 or 10 μM of the compounds in the cancer cells for 4 days, the cell proliferative ratios to the control were measured (see FIG. 5). […] The different antiproliferative activities imply that the antitumor potency of the F16 related compounds is cell-dependent. Meanwhile, substituents in F16 and F16-TPP analogues played distinct roles, for instance, introduction of a fluorine atom in F16 barely influences activity of FF16 (P>0.05), while substitution of fluorine and methyl groups apparently impacts F16-TPP analogues in the U87MG cell line at a higher concentration of 10 μM.
(§1) To further confirm the relationship between cell uptake and antitumor activity, the half inhibitory concentrations (IC50) of these compounds against the U87MG cell line were measured. […] It should be noted that all these five compounds show minimum or even un-observable toxicity in the fibroblast cell line NIH 3T3 (IC50 all >100 μM, Table 1, FIG. 6), highlighting the treatment specificity of these mitochondrial targeted agents.
(§2) Both U87MG and NIH 3T3 cell lines at a density of 3000 cells/well were incubated in 96-well plates overnight. The culture medium was replaced with 200 μL of culture medium in which the testing compound dispersed at various concentrations (0.5-200 μM). After incubation for 4 days, the viable cell numbers were checked and directly counted under microscopy (10×). A minimum of 1 mm×1 mm area was counted from each of at least three widely separated regions of cell culture. The cell proliferation rate was calculated by the following formula: cell proliferation rate (%)=(average cell number of sample wells/average cell number of control wells×100. The intact culture medium was evaluated as a control.

U87MG cells [2] = assay: Cell uptake and localization by fluorescence microscopy in U87MG cells; assay type: cell-based, human; settings: 1 hour incubation, fluorescence signal in cells/PBS buffer, n=9
Protocol: The data was obtained by calculating by the following equation: Fluorescence signal in cell lines/Fluorescence signal in PBS buffer and normalized to F16 in the U87MG cell line. n=9. Data are presented as mean±SD.
Tumor cell uptake of all F16 related compounds were studied by incubating two cancer cell lines (U87MG and MDA-MB-231) with the probes for 1 hour and then imaging was performed with a fluorescent microscope. Meanwhile, to investigate the localization of the F16 derivatives, after incubation with the probes, cells were co-stained with the commercially available dye Mitotrack, which is widely used for mitochondria staining. […] Under eGFP filter set (ξex 450/490 nm, λem 515/565 nm), no significant autofluorescence of the cells were observed, making it convenient to study the relative uptake of the probes directly by comparing their fluorescence signals.
We then investigated the uptake of all the probes in U87MG and MDA-MB-231 cells at 1 hour incubation by quantitative analysis of fluorescent signals intensity of all F16 related compounds in the cells. The cellular uptake experiments were repeated nine times, and the relative cellular uptakes ability of different probes were calculated by comparing their percentage of cellular fluorescent signals and then normalized by that of F16 (FIG. 4). […]

NIH 3T3 cells = assay: Cell proliferation assay in NIH 3T3 cells (direct cell counting); assay type: cell-based, mouse; settings: NIH 3T3 fibroblasts, 3000 cells/well, incubated 4 days, viable cells directly counted, read-out: IC50 (half inhibitory concentration) against NIH 3T3
Protocol: as §1, §2

Structure (SMILES)	IC50 (U87MG cells [1]; Homo sapiens, U-87 MG, 96 h) [µM]	Relative uptake in U87MG cells, normalized to F16 (U87MG cells [2])	IC50 (NIH 3T3 cells; Mus musculus, NIH3T3, 96 h) [µM]	IC50 (U87MG cells [1]) [µM]	Improvement of bioactivity relative to F16 (U87MG IC50) (U87MG cells [1]; fluorine substitution in F16) [fold]	IC50 (NIH 3T3 cells) [µM]
C[n+]1ccc(/C=C/c2c[nH]c3ccccc23)cc1.[I-] [F16, (E)-4-(1H-indol-3-ylvinyl)-N-methylpyridinium iodide, reference compound]	36.5 ± 1.1	~1	~100			
C[n+]1ccc(/C=C/c2c[nH]c3ccc(F)cc23)cc1.[I-] [FF16, (E)-4-(1H-5-fluro-indole-3-ylvinyl)-N-methylpyridinium iodide]		~1		28 ± 1.2	~1.3	~491
